# Molecular target: T1, human FSH receptor (Homo sapiens, UniProt P23945)
# T1 construct: expressed in transfected cells; host or cells: CHO cells (hFSHR clone 16)
# T1 sequence (P23945 18-695): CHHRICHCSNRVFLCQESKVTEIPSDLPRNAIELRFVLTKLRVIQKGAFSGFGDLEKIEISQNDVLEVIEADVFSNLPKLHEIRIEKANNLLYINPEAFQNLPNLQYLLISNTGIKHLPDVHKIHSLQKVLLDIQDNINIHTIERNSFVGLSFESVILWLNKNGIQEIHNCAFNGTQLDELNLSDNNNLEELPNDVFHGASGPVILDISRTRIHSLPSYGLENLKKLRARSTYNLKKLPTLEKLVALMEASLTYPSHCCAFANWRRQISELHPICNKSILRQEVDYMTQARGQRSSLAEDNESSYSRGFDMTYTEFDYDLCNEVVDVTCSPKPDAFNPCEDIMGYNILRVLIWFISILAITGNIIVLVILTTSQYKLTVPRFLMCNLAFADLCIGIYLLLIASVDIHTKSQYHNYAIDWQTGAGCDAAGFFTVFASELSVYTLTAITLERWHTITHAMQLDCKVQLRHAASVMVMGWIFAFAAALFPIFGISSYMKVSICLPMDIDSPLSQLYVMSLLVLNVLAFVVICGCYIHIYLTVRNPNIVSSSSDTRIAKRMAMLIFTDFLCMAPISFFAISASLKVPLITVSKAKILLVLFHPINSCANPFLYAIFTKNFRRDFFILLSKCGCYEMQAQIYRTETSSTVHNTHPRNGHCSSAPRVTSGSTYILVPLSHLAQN
# Experiment: HTRF assay for measuring cAMP in cells (FSH antagonism)
# Format: cell-based
# Conditions: hFSHR clone 16 cells (CHO cells stably transfected with the human FSH receptor); in the presence of 1e-9 mol/l hFSH; cAMP readout; read-out: IC50 (FSH antagonistic effect in the HTRF assay)
# Experimental: HTRF Assay for Measuring cAMP in Cells
# The method is based on a competitive immunoassay between native cAMP, which has been produced by the cells, and cAMP which is labelled with cAMPD2 conjugate. The tracer binding was visualized by a monoclonal antibody, anti-cAMP labelled with cryptate [HTRF=homogeneous time-resolved fluorescence].
# The specific signal is inversely proportional to the cAMP concentration of the samples employed.
# The 665 nm/620 nm fluorescence ratio was evaluated.
# The following material was used: 96-well plates for the tissue culture, 96-well plates with black edge and black base (e.g. Fluotrac 600 from Greiner), 96-well plates for the substance dilutions of polypropylene and cAMP Femtomolar (4000wells Kit, CIS Bio International #62AM5PEJ).
# The following reagents were used: BSA (bovine serum albumin) Fraction V protease-free, IBMX (3-isobutyl-1-methylxanthine), hFSH (human follicle stimulating hormone), Triton X-100 analytical grade, potassium fluoride analytical grade, G 418 (Geneticin) and Accutase.
# Buffer 1 (washing and testing buffer) contained PBS, 1 mM CaCl2, 1 mM MgCl2, 0.2% glucose; 0.1% BSA, 1 mM IBMX.
# Buffer 2 (2× lysis buffer) contained 1% Triton X-100 in PBS (without CaCl2 and MgCl2).
# Buffer 3 (assay buffer) contained 50 mM potassium phosphate buffer (pH 7.0); 800 mM potassium fluoride; 0.2% BSA (always added fresh).
# On day 1, the cells were seeded in 96-well plates (3×10^4 cells per well hFSHR clone 16 cells (CHO cells stably transfected with the human FSH receptor in 150 μl of medium). The next day, test substance dilutions were made up. For this purpose, all the substances were diluted in ice-cold buffer 1 (with or without hFSH), and the substance dilutions were placed on ice until applied to the cells.
# The cell supernatant was then aspirated off, and the cells were washed 2× with 200 μl of buffer 1. The cells were treated with 60 μl of the appropriate substance concentrations at 37° C. for 2 h. The cells were then lysed with 60 μl of buffer 2 (put onto the supernatant) (on a plate shaker at RT for 30 min).
# The test conjugates (cAMP-D2 and anti-cAMP cryptate, CIS Bio) were diluted in buffer 3 in accordance with the manufacturers' information. The actual mixture for measurement was pipetted into a black 96-well plate (in each case 15 μl of the cell lysate diluted with 35 μl of buffer 1; firstly 25 μl of cAMP-D2 conjugate were pipetted and, after 10 min, 25 μl of the anti-cAMP cryptate were added). This is followed by incubation at RT for 90 minutes. The measurement was carried out in a PheraStar (BMG).
# Dose-effect curve (hFSH) for the human receptor: 1e-8, 3e-9, 1e-9, 3e-10, 1e-10, 3e-11, 1e-11, 3e-12 mol/l.
# The test substances were employed in suitable dilutions in the absence (test for agonism) and in the presence of 1e-9 mol/l hFSH.
# The values of the well ratio were averaged and then entered directly in SigmaPlot versus the concentrations. The maximum and minimum values were determined for each plate, and half the difference is to be regarded as IC50.
row,IC50 [nM],Compound
1,1000,"CNC(=O)c1cc(F)cc(-c2ccc(OC(C)C)c(C(=O)NC(C)(CO)Cc3c[nH]c4ccccc34)c2)c1 (centres unmarked) [Example 2, 5′-Fluoro-4-isopropoxy-biphenyl-3,3′-dicarboxylic acid 3-{[2-hydroxy-1-(1H-indol-3-ylmethyl)-1-methyl-ethyl]-amide} 3′-methylamide]"
2,100,"CNC(=O)c1ccc(-c2ccc(OC(C)C)c(C(=O)NC(C)(CO)Cc3c[nH]c4ccccc34)c2)cc1Cl (centres unmarked) [Example 3, 3′-Chloro-4-isopropoxy-biphenyl-3,4′-dicarboxylic acid 3-{[2-hydroxy-1-(1H-indol-3-ylmethyl)-1-methyl-ethyl]-amide}-4′-methylamide]"

# More lines, now with the values behind:
row,Compound,IC50 [nM]
1,"COc1ccc(-c2ccc(OC(C)C)c(C(=O)NC(C)(CO)Cc3c[nH]c4ccccc34)c2)cc1OC (racemic) [Example 4, 4-Isopropoxy-3′,4′-dimethoxy-biphenyl-3-carboxylic acid [1-hydroxymethyl-2-(1H-indol-3-yl)-1-methyl-ethyl]-amide]",50
2,"CC(C)Oc1ccc(C#Cc2ccccc2)cc1C(=O)NC(C)(CO)Cc1c[nH]c2ccccc12 (centres unmarked) [Example 1, N-[1-Hydroxymethyl-2-(1H-indol-3-yl)-1-methyl-ethyl]-2-isopropoxy-5-phenylethynyl-benzamide]",1000
3,"COc1ccccc1C#Cc1ccc(OC(C)C)c(C(=O)NC(C)(CO)Cc2c[nH]c3ccccc23)c1 (centres unmarked) [Example 5, N-[1-Hydroxymethyl-2-(1H-indol-3-yl)-1-methyl-ethyl]-2-isopropoxy-5-(2-methoxy-phenylethynyl)-benzamide]",200

# From US20090069328A1, “ALPHA-ALKYL SUBSTITUTED N-ACYLTRYPTOPHANOLS” (priority 2007, published 2009)
